Results published in the supplement of paper PMC10307832.

Columns and labels:
Assay in all cases: relative viability (nuclei count vs DMSO), 5 days (fraction); higher = more cells survive
[1] = compound: Cc1ccc(NC(=O)c2ccc(CN3CCN(C)CC3)cc2)cc1Nc1nccc(-c2cccnc2)n1 [Imatinib] + CC(=O)Nc1cccc(-n2c(=O)n(C3CC3)c(=O)c3c(Nc4ccc(I)cc4F)n(C)c(=O)c(C)c32)c1 [Trametinib] (partner 0.02 µM)
In short: (§1)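 After 5 days of treatment, lung cancer cells in 1536-well plates were fixed and stained in a single step (final 0.05% Triton X-100, 1% formaldehyde, 1 ug/ml Hoechst) and their nuclei counted on 4× images. Treatment had been applied by pin tool the day after seeding as one drug alone or as a fixed anchor-drug dose with five library-drug doses (not always all listed) in √10 steps. Relative viability is the nuclei count of treated wells divided by that of vehicle wells, and values are medians of duplicate plates.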

[2] = compound: Cc1ccc(NC(=O)c2ccc(CN3CCN(C)CC3)cc2)cc1Nc1nccc(-c2cccnc2)n1 [Imatinib] + CS(=O)(=O)CCNCc1ccc(-c2ccc3ncnc(Nc4ccc(OCc5cccc(F)c5)c(Cl)c4)c3c2)o1 [Lapatinib] (partner 2 µM)
In short: as §1

[3] = compound: Cc1ccc(NC(=O)c2ccc(CN3CCN(C)CC3)cc2)cc1Nc1nccc(-c2cccnc2)n1 [Imatinib] + N=C(N)NC(=N)NCCc1ccccc1 [Phenformin] (partner 250 µM)
In short: as §1

[4] = compound: Cc1ccc(NC(=O)c2ccc(CN3CCN(C)CC3)cc2)cc1Nc1nccc(-c2cccnc2)n1 [Imatinib] + O=C(CCCCCCC(=O)Nc1ccccc1)NO [Vorinostat] (partner 1 µM)
In short: as §1

Row | Cell Line | relative viability ([1]; first compound 0.02 µM) | relative viability ([1]; first compound 0.06325 µM) | relative viability ([1]; first compound 0.2 µM) | relative viability ([1]; first compound 0.6325 µM) | relative viability ([1]; first compound 2 µM) | relative viability ([2]; first compound 0.02 µM) | relative viability ([2]; first compound 0.06325 µM) | relative viability ([2]; first compound 0.2 µM) | relative viability ([2]; first compound 0.6325 µM) | relative viability ([2]; first compound 2 µM) | relative viability ([3]; first compound 0.02 µM) | relative viability ([3]; first compound 0.06325 µM) | relative viability ([3]; first compound 0.2 µM) | relative viability ([3]; first compound 0.6325 µM) | relative viability ([3]; first compound 2 µM) | relative viability ([4]; first compound 0.02 µM) | relative viability ([4]; first compound 0.06325 µM) | relative viability ([4]; first compound 0.2 µM) | relative viability ([4]; first compound 0.6325 µM) | relative viability ([4]; first compound 2 µM)
1 | NCI-H2170 | 1 | 1.06 | 1.02 | 0.972 | 0.965 | 0.266 | 0.28 | 0.282 | 0.263 | 0.245 | 0.448 | 0.414 | 0.406 | 0.361 | 0.301 | 0.972 | 0.845 | 0.834 | 0.775 | 0.792
2 | NCI-H2228 | 0.663 | 0.338 | 0.467 | 0.507 | 0.605 | 1.31 | 1.02 | 1.03 | 1.01 | 0.843 | 0.335 |  | 0.268 | 0.277 | 0.272 | 0.677 | 0.692 | 0.724 | 0.602 | 1
3 | NCI-H2347 | 0.35 |  | 0.309 | 0.285 | 0.273 | 0.995 | 0.913 | 1.05 | 1.04 | 0.91 | 0.381 | 0.376 | 0.386 | 0.307 | 0.381 | 0.568 |  | 0.585 | 0.552 | 0.569
4 | NCI-H2405 | 0.623 | 0.538 | 0.637 | 0.516 | 0.634 | 1.05 |  | 1.1 | 0.961 | 1.15 | 0.366 |  | 0.341 | 0.329 | 0.333 | 1.06 |  | 1.18 | 0.942 | 0.961
5 | NCI-H3122 | 0.25 | 0.292 | 0.236 | 0.253 | 0.216 | 1.03 | 1.04 |  | 1.02 | 0.989 | 0.394 | 0.38 | 0.366 |  | 0.357 | 1.13 | 1.01 | 1.08 |  | 1.02
6 | PC-3 [JPC-3] | 0.719 |  |  | 0.724 | 0.621 | 0.503 |  | 0.48 | 0.462 | 0.431 | 0.474 |  | 0.485 | 0.454 | 0.414 | 0.882 |  |  | 0.899 | 0.727
7 | PC-14 | 1.01 | 1.18 | 1.11 | 0.765 | 0.897 | 0.388 | 0.24 | 0.301 | 0.321 | 0.317 | 0.626 | 0.802 | 0.586 | 0.374 | 0.656 | 0.902 | 0.472 | 0.8 | 0.56 | 0.791
8 | RERF-LC-KJ | 0.806 | 0.97 | 0.936 | 0.909 | 0.771 |  | 0.853 | 0.498 | 0.819 | 0.763 | 0.49 | 0.472 | 0.432 | 0.407 | 0.428 | 0.698 | 0.535 |  | 0.662 | 0.683
9 | SK-LU-1 | 0.465 | 0.485 | 0.52 | 0.514 | 0.529 | 1.08 | 1.1 | 1.11 |  | 0.82 | 0.56 | 0.499 | 0.499 | 0.472 | 0.475 | 0.87 | 0.832 | 0.798 | 0.793 | 0.748
10 | SK-MES-1 | 0.642 | 0.663 | 0.589 | 0.587 | 0.588 | 0.496 | 0.512 | 0.505 | 0.471 | 0.494 | 0.72 | 0.686 | 0.725 | 0.619 | 0.577 |  | 1.37 | 1.29 |  | 1.09
11 | SW 1573 | 0.614 | 0.565 | 0.619 | 0.618 | 0.631 | 1.33 | 0.676 | 1.28 | 0.983 | 1.17 | 0.325 | 0.365 | 0.361 | 0.352 | 0.335 | 0.802 | 0.392 | 0.973 | 0.9 | 0.709
12 | UMC-11 | 0.706 | 0.736 | 0.643 | 0.896 | 0.717 | 1.01 | 1.1 | 1.25 | 0.995 | 0.994 | 0.331 | 0.327 | 0.322 | 0.332 | 0.294 | 0.35 | 0.377 | 0.36 | 0.412 | 0.369
